Test results: US20220380341A1, “INHIBITORS OF HIV-1 NEF FOR THE TREATMENT OF HIV DISEASE” (priority 2018, published 2022)
pKd: −log10 of the molar value. Read-outs that look alike come from different tables or passages of the source.

Key:
TZM-bl cell line = assay type: cell-based
Summary of the method: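 TZM-bl cells (HIV-1 LTR-luciferase) infected with HIV-1NL4-3 with compound at 1 μM; luciferase read 48 h later. Percent inhibition normalized to DMSO wild-type infection (0%) and Nef-defective HIV-1 infection (100% of Nef-dependent effect). Viability in uninfected TZM-bl cells by Cell Titer Blue.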

HIV-1NL4-3 = experiment: HIV-1 infectivity assay in TZM-bl reporter cell line (LTR-luciferase, 48 h); assay type: cell-based; settings: for inhibition at 1 µM: Human immunodeficiency virus 1, TZM-bl
Summary of the method: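 Read-out is luciferase from an integrated HIV-1 LTR reporter in TZM-bl cells, 48 h after HIV-1NL4-3 infection in the presence of 1 μM compound. Scale set by DMSO-treated wild-type-infected cells (0%) and Nef-defective virus (100% Nef-dependent effect). Cell Titer Blue measures cytotoxicity without virus.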

HIV-1 NefNL4-3 = HIV-1 NefNL4-3 (Human immunodeficiency virus type 1 group M subtype B, UniProt P03406, A33V/T15A/T51N/V11I); experiment: Surface plasmon resonance binding to recombinant full-length Nef (NL4-3); settings: for T, minutes (residence time): 2-step induced fit, T = 1/koff2; for RU30/RUNef (extent of binding): response units at 30 μM relative to Nef immobilized on the SPR chip
[1] = 1.0 μM, TZM-bl reporter cell line, Table 4, read-out: % Infectivity Inhibition
[2] = 48 h, Table 1, TZM-bl cells, 1 μM, 48 h, 100% = Nef-defective HIV-1, read-out: HIV-1 Infectivity % Inhibition Norm. to Δ-Nef @ 1 μM
[3] = KD, M, Table 4, SPR fit 2-step induced fit, KD = koff/kon × koff2/(koff2 + kon2)
[4] = Nef NL4-3 Binding, SPR 2-state fitting KD, Table 1, 2-step induced-fit model
[5] = read-out: Nef NL4-3 Binding, SPR 1:1 or 2-site fitting KD2, Table 1, 2-site fit, second component
[6] = Table 1, 1:1 Langmuir fit where the KD2 cell says '1 to 1 fitting', else 2-site fit

SMILES | % Cell Viability (TZM-bl cell line; human, 1 μM) [%] | Percent Viability @ 1 μM (TZM-bl cells) (TZM-bl cell line; human, 1 μM) [%] | inhibition at 1 µM (HIV-1NL4-3; [1]) [%] | inhibition at 1 µM (HIV-1NL4-3; [2]) [%] | pKd (HIV-1 NefNL4-3) | pKd (HIV-1 NefNL4-3; [3]) | pKd (HIV-1 NefNL4-3; [4]) | T, minutes (residence time) (HIV-1 NefNL4-3; Table 4) | pKd (HIV-1 NefNL4-3; [5]) | RU30/RUNef (extent of binding) (HIV-1 NefNL4-3) | further results
O=C(C1CCC(O)CC1)N1CCC(c2nn(-c3nc4ccccc4[nH]3)c(O)c2CCc2ccc(F)cc2)CC1 (stereo not shown) [Compound I-735, 1-(1H-1,3-benzodiazol-2-yl)-4-[2-(4-fluorophenyl)ethyl]-3-[1-(4-hydroxycyclohexanecarbonyl)piperidin-4-yl]-1H-pyrazol-5-ol] | 96.9 | 96.9 | 38.8 | 38.8 | 7.33 | 9.30 | 9.30 | 6.44E + 03 minutes | 5.55 | 6.53E- 03 | –
O=C(C1CCOC1)N1CCC(c2nn(-c3nc4ccccc4[nH]3)c(O)c2CCc2ccc(F)cc2)CC1 (stereo not shown) [Compound I-736, 1-(1H-1,3-benzodiazol-2-yl)-4-[2-(4-fluorophenyl)ethyl]-3-[1-(oxolane-3-carbonyl)piperidin-4-yl]-1H-pyrazol-5-ol] | 96.0 | 96.0 | 7.5 | 7.5 | 7.00 | 8.69 | 8.69 | 1.97E + 03 minutes | 5.71 | 1.02E- 02 | –
O=C(c1ccoc1)N1CCC(c2nn(-c3nc4ccccc4[nH]3)c(O)c2CCc2ccc(F)cc2)CC1 [Compound I-737, 1-(1H-1,3-benzodiazol-2-yl)-4-[2-(4-fluorophenyl)ethyl]-3-[1-(furan-3-carbonyl)piperidin-4-yl]-1H-pyrazol-5-ol] | 93.0 | 93.0 | 0 | -4.8 | 11.31 | 8.77 | 8.77 | 9.06E + 03 minutes | 5.40 | 1.36E- 02 | –
O=C1NC(=O)C(CC(=O)N2CCC(c3nn(-c4nc5ccccc5[nH]4)c(O)c3CCc3ccc(F)cc3)CC2)N1 (stereo not shown) [Compound I-738, 5-(2-{4-[1-(1H-1,3-benzodiazol-2-yl)-4-[2-(4-fluorophenyl)ethyl]-5-hydroxy-1H-pyrazol-3-yl]piperidin-1-yl}-2-oxoethyl)imidazolidine-2,4-dione] | – | 100.4 | – | -9.9 | – | – | – | – | – | – | Nef NL4-3 Binding, SPR 1:1 or 2-site fitting KD1 (HIV-1 NefNL4-3; [6]): No Interaction
CN(C)C(=O)N1CCC(c2nn(-c3nc4ccccc4[nH]3)c(O)c2CCC2CCOCC2)CC1 [Compound I-739, 4-[1-(1H-1,3-benzodiazol-2-yl)-5-hydroxy-4-[2-(oxan-4-yl)ethyl]-1H-pyrazol-3-yl]-N,N-dimethylpiperidine-1-carboxamide] | – | 100.0 | – | -7 | – | – | – | – | – | – | Nef NL4-3 Binding, SPR 1:1 or 2-site fitting KD1 (HIV-1 NefNL4-3; [6]): No Interaction
COC(=O)N1CCC(c2nn(-c3nc4ccccc4[nH]3)c(O)c2CCc2ccc(F)cc2)CC1 [Compound I-740, methyl 4-[1-(1H-1,3-benzodiazol-2-yl)-4-[2-(4-fluorophenyl)ethyl]-5-hydroxy-1H-pyrazol-3-yl]piperidine-1-carboxylate] | 89.8 | 89.8 | 39.1 | 39.1 | 6.80 | 6.26 | 6.26 | 1.26E + 01 minutes | 5.47 | 7.81E- 03 | –
O=S(=O)(c1cccnc1)N1CCC(c2nn(-c3nc4ccccc4[nH]3)c(O)c2CCc2ccc(F)cc2)CC1 [Compound I-742, 1-(1H-1,3-benzodiazol-2-yl)-4-[2-(4-fluorophenyl)ethyl]-3-[1-(pyridine-3-sulfonyl)piperidin-4-yl]-1H-pyrazol-5-ol] | 77.3 | 77.3 | 100 | 125 | – | 11.84 | 11.84 | – | 4.25 | 2.76E- 03 | –
CC(=O)N1CCC(c2nn(-c3nc4ccccc4[nH]3)c(O)c2Cc2ccc(F)c(F)c2)CC1 [Compound I-744, 1-{4-[1-(1H-1,3-benzodiazol-2-yl)-4-[(3,4-difluorophenyl)methyl]-5-hydroxy-1H-pyrazol-3-yl]piperidin-1-yl}ethan-1-one] | 98.2 | 98.2 | 51.2 | 51.2 | 7.63 | 5.71 | 5.71 | 5.61E + 00 minutes | 5.14 | 4.92E- 03 | –
CC(C)(O)C(=O)N1CCC(c2nn(-c3nc4ccccc4[nH]3)c(O)c2CCc2ccc(F)cc2)CC1 [Compound I-745, 1-{4-[1-(1H-1,3-benzodiazol-2-yl)-4-[2-(4-fluorophenyl)ethyl]-5-hydroxy-1H-pyrazol-3-yl]piperidin-1-yl}-2-hydroxy-2-methylpropan-1-one] | – | 100.0 | – | 23.8 | 5.00 | – | – | – | – | – | –
O=S(=O)(C1CCCCC1)N1CCC(c2nn(-c3nc4ccccc4[nH]3)c(O)c2CCc2ccc(F)cc2)CC1 [Compound I-747, 1-(1H-1,3-benzodiazo1-2-y1)-3-[1-(cyclohexanesulfonyl)piperidin-4-yl]-4-[2-(4-fluorophenyl)ethyl]-1H-pyrazol-5-ol] | – | – | – | – | – | – | – | – | – | – | Percent Viability @ 1 μM (TZM-bl cells) (TZM-bl cell line): 86.9%; HIV Infectivity % Control @ 1 μM (HIV-1NL4-3; 1 μM, TZM-bl reporter cells, % of control): 30.9%; HIV-1 Infectivity % Inhibition Norm. to Δ-Nef @ 1 μM (HIV-1NL4-3; 1 μM, TZM-bl, normalized: DMSO wild-type HIV-1 = 0%, Nef-defective HIV-1 = 100%): 179.3%; HIV-1 Infectivity % Inhibition Norm. to Δ-Nef @ 1 μM (HIV-1NL4-3; Table 1, TZM-bl cells, 1 μM, 48 h, 100% = Nef-defective HIV-1): 179.3%; Kd (HIV-1 NefNL4-3; KD, two-step induced-fit model, Reichert SPR, Table 3, read-out: Reichert SPR Nef NL43 (M) two-step fitting): 0.000257 M; pKd (HIV-1 NefNL4-3; Table 1, 1:1 Langmuir fit where the KD2 cell says '1 to 1 fitting', else 2-site fit, read-out: Nef NL4-3 Binding, SPR 1:1 or 2-site fitting KD1): 7.05; pKd (HIV-1 NefNL4-3; Table 1, 2-site fit, second component, read-out: Nef NL4-3 Binding, SPR 1:1 or 2-site fitting KD2): 5.81; pKd (HIV-1 NefNL4-3; Table 1, 2-step induced-fit model, read-out: Nef NL4-3 Binding, SPR 2-state fitting KD): 3.59
O=S(=O)(C1CC1)N1CCC(c2nn(-c3nc4ccccc4[nH]3)c(O)c2CCc2ccc(F)cc2)CC1 [Compound I-748, 1-(1H-1,3-benzodiazol-2-yl)-3-[1-(cyclopropanesulfonyl)piperidin-4-yl]-4-[2-(4-fluorophenyl)ethyl]-1H-pyrazol-5-ol] | – | 94.8 | – | 22.3 | 5.38 | – | – | – | – | – | –
Nc1ccc(S(=O)(=O)N2CCC(c3nn(-c4nc5ccccc5[nH]4)c(O)c3CCc3ccc(F)cc3)CC2)cc1 [Compound I-749, 3-[1-(4-aminobenzenesulfonyl)piperidin-4-yl]-1-(1H-1,3-benzodiazol-2-yl)-4-[2-(4-fluorophenyl)ethyl]-1H-pyrazol-5-ol] | – | 78.7 | – | 64.1 | 8.90 | – | 6.40 | – | 6.12 | – | –
CC(C)CS(=O)(=O)N1CCC(c2nn(-c3nc4ccccc4[nH]3)c(O)c2CCc2ccc(F)cc2)CC1 [Compound I-750, 1-(1H-1,3-benzodiazol-2-yl)-4-[2-(4-fluorophenyl)ethyl]-3-[1-(2-methylpropanesulfonyl)piperidin-4-yl]-1H-pyrazol-5-ol] | – | 93.0 | – | 63.7 | 9.86 | – | 5.94 | – | 9.24 | – | –
CC(C)S(=O)(=O)N1CCC(c2nn(-c3nc4ccccc4[nH]3)c(O)c2CCc2ccc(F)cc2)CC1 [Compound I-751, 1-(1H-1,3-benzodiazol-2-yl)-4-[2-(4-fluorophenyl)ethyl]-3-[1-(propane-2-sulfonyl)piperidin-4-yl]-1H-pyrazol-5-ol] | – | 101.1 | – | 22.3 | 6.25 | – | – | – | – | – | –
